Common to all, as to assay: MIC by agar dilution method
Common to all, as to assay type: cell-based
Background: In agar dilution the substance is mixed into plates at graded concentrations.

The subject of experiment [1] is Enterobacter cloacae IFO 12937. Conditions: IFO12937, test organism (6), Trypticase soy agar, about 10^8 CFU/mℓ, overnight at 37°C. As to the method:
(§1) With regard to the objective compounds as obtained in Examples 2 to 5 and 17 to 19, MICs (µg/mℓ) were measured by the method to be described below and the results are tabulated in the following table.
(§2) The MIC of a test compound was determined by the agar dilution method. Thus, 1.0 mℓ each of successively diluted,; aqueous solutions of a test compound are poured in a petri dish, respectively, and then 9.0 mℓ of Trypticase soy agar was poured, followed by mixing. A suspension (about 10^8 CFU/ mℓ) of a test organism was smeared on the mixed agar plates. After incubation overnight at 37°C, the minimum concentration of the test compound to inhibit fully the growth of the test organism is determined as the minimal inhibitory concentration (MIC).
(§3) • (1) Escherchia coli NIHJ JC-2; • (2) Serratia marcescens IFO 12648 • (3) Proteus vulgaris IFO 3988 • (4) Proteus mirabilis IFO 3849 • (5) Pseudomonas aeruginosa IFO 3455 • (6) Enterobacter cloacae IFO 12937

Experiment [2] concerns Escherchia coli NIHJ JC-2. Conditions: test organism (1); Trypticase soy agar, about 10^8 CFU/mℓ, overnight at 37°C. As to the method: as §1, §2, §3
For experiment [3], the system named is Proteus mirabilis IFO 3849. Conditions: IFO3849, test organism (4), Trypticase soy agar, about 10^8 CFU/mℓ, overnight at 37°C. As to the method: as §1, §2, §3
Experiment [4] has as its system Proteus vulgaris IFO 3988. Conditions: IFO3988, test organism (3), Trypticase soy agar, about 10^8 CFU/mℓ, overnight at 37°C. As to the method: as §1, §2, §3
In experiment [5] the test system is Pseudomonas aeruginosa IFO 3455. Conditions: IFO3455, test organism (5), Trypticase soy agar, about 10^8 CFU/mℓ, overnight at 37°C. As to the method: as §1, §2, §3
Experiment [6] relates to Serratia marcescens IFO 12648. Conditions: IFO12648, test organism (2), Trypticase soy agar, about 10^8 CFU/mℓ, overnight at 37°C. As to the method:
as §1, §2, §3

Where a name gives a salt, the structure may show the parent alone.

The term MIC denotes the lowest concentration found to suppress growth. A higher MIC goes with a need for much substance. In the case of `CCN1CCN(C(=O)N[C@@H](C(=O)N[C@@H]2C(=O)N(OCC(=O)O)[C@H]2C)c2ccccc2)C(=O)C1=O` [Example 4, (3S,4S)-1-carboxymethoxy-3-[(D)-2-(4-ethyl-2,3-dioxopiperazine-1-carbonylamino)-2-phenylacetamido]-4-methyl-2-azetidinone monosodium salt], the MIC in experiment [1] is above 100 µg/mL; in experiment [2], 12.5 µg/mL; in experiment [3], 12.5 µg/mL; in experiment [4] it was 1.56 µg/mL; in experiment [5], 25 µg/mL; in experiment [6] it was 6.25 µg/mL.

On to `CO/N=C(\C(=O)N[C@@H]1C(=O)N(OCC(=O)O)[C@H]1C)c1csc(N)n1` [Example 2, (3S,4S)-3-[2-aminothiazol-4-yl)-(Z)-2-methoxyiminoacetamido]-1-carboxymethoxy-4-methyl-2-azetidinone monosodium salt], for which the MIC in experiment [1] was 12.5 µg/mL; in experiment [2] it was 0.39 µg/mL; in experiment [3] it was 0.39 µg/mL; in experiment [4] it was 0.39 µg/mL; in experiment [5], above 100 µg/mL; in experiment [6] it was 0.39 µg/mL.

As for `C[C@H]1[C@H](NC(=O)/C(=N\OC(C)(C)C(=O)O)c2csc(N)n2)C(=O)N1OCC(=O)O` [Example 3, (3S,4S)-3-[2-(2-aminothiazol-4-yl)-(Z)-2-(1-carboxy-1-methylethoxyimino)acetamido]-1-carboxymethoxy-4-methyl-2-azetidinone disodium salt], the MIC in experiment [1] is 12.5 µg/mL; in experiment [2], 0.39 µg/mL; in experiment [3], below 0.1 µg/mL; in experiment [4] it was below 0.1 µg/mL; in experiment [5] it was 6.25 µg/mL; in experiment [6], 0.39 µg/mL.

Turning to `C[C@H]1[C@H](NC(=O)/C(=N\OCC(=O)O)c2csc(N)n2)C(=O)N1OCC(=O)O` [Example 19, (3S,4S)-3-[2-(2-aminothiazol-4-yl)-(Z)-2-carboxymethoxy-iminoacetamido]-1-carboxymethoxy-4-methyl-2-azetidinone disodium salt], the MIC in experiment [1] is 50 µg/mL; in experiment [2], 0.39 µg/mL; in experiment [3] it was 0.39 µg/mL; in experiment [4], 0.39 µg/mL; in experiment [5], above 100 µg/mL; in experiment [6], 0.39 µg/mL.

As to `CC(C)(O/N=C(\C(=O)N[C@H]1CN(OCC(=O)O)C1=O)c1csc(N)n1)C(=O)O` [Example 5, (3S)-3-[2-(2-aminothiazol-4-yl)-(Z)-2-(1-carboxy-1-methylethoxyimino)acetamido]-1-carboxymethoxy-2-azetidinone disodium salt], the MIC in experiment [1] was 50 µg/mL; in experiment [2], 0.78 µg/mL; in experiment [3], 1.56 µg/mL; in experiment [4], 0.78 µg/mL; in experiment [5] it was 6.25 µg/mL; in experiment [6] it was 1.56 µg/mL.

Take `NC(=O)OC[C@H]1[C@H](NC(=O)/C(=N\OCC(=O)O)c2csc(N)n2)C(=O)N1OCC(=O)O` (relative stereo) [Example 17, trans-3-[2-(2-aminothiazol-4-yl)-(Z)-2-carboxymethoxyiminoacetamido]-4-carbamoyloxymethyl-l-carboxy-methoxy-2-azetidinone disodium salt]: the MIC in experiment [1] was found to be 0.78 µg/mL; in experiment [2] it was 0.39 µg/mL; in experiment [3] it was 0.39 µg/mL; in experiment [4], 0.39 µg/mL; in experiment [5], 100 µg/mL; in experiment [6], 0.39 µg/mL.

With `CC(C)(O/N=C(\C(=O)N[C@@H]1C(=O)N(OCC(=O)O)[C@H]1COC(N)=O)c1csc(N)n1)C(=O)O` (relative stereo) [Example 18, trans-3-[2-(2-aminothiazol - 4-yl) - (Z) -2-(1-carboxy-1-methylethoxyimino)acetamido]-4-carbamoyloxymethyl-l-carboxymethoxy-2-azetidinone disodium salt], the MIC was 0.78 µg/mL in experiment [1]; 0.78 µg/mL in experiment [2]; below 0.1 µg/mL in experiment [3]; below 0.1 µg/mL in experiment [4]; 12.5 µg/mL in experiment [5]; 0.39 µg/mL in experiment [6].
